According to patent publication US11987608B2, “Composition for accelerating cell proliferation comprising erythropoietin-derived peptide” (SYLUS CO., LTD., priority 2018, dated 2024):
Where two headings read alike, the source gives them in different places. No end group written: not given here.

Assays:
[1] = molecular target: T1, Soluble mouse EPOR chimera proteins (Mus musculus, UniProt P14753); assay: SPR binding affinity of erythropoietin-derived peptides to erythropoietin receptor; details: for koff: read-out: Kd (dissociation rate); for kon: read-out: Ka (association rate)
T1 construct: Soluble mouse EPOR chimera proteins; purchased R&D Systems
T1 sequence (P14753 25-249 limits assumed): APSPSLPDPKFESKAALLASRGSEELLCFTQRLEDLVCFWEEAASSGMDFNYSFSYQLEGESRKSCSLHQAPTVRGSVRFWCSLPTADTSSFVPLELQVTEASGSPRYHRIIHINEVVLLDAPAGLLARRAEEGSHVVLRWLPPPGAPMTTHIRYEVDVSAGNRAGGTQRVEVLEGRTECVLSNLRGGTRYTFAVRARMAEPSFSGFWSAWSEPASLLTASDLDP
Method: The SPR technique is to measure interactions between biomolecules in real-time by using an optical principle without specific labeling, and is a system analyzing affinity between two molecules and kinetics, i.e., an association rate (Ka) and a dissociation rate (Kd).
In detail, real-time SPR analysis was performed using Reichert SPR Biosensor SR 7500C instrument (Reichert Inc., NY, USA). Soluble mouse EPOR chimera proteins (R&D Systems, Minneapolis, MN, USA) were covalently linked to a carboxymethylated dextran matrix-coated chip (BR-1005-39, Pharmacia Biosensor AB) by an amine coupling procedure using an amine coupling kit (BR-1000-50, GE Healthcare, USA) in accordance with manufacturer's instructions. Each 5 μM, 2.5 μM, and 1.25 μM of the peptide samples of the present disclosure and scrambled peptides were applied at a flow rate of 5 μl/minute, and the experiments were independently performed in duplicate. For signal normalization, DMSO was applied at a flow rate of 5 μl/minute, and after each binding cycle, the sensor chip was regenerated by injecting 25 mM acetic acid at a flow rate of 20 μl/minute.

PC12 cells [2] = assay: Comparison of cell protective and proliferative effects to EPO by K-means clustering; assay type: cell-based; details: FIG. 9
erythropoietin receptor = molecular target: T2, erythropoietin receptor (Homo sapiens, UniProt P19235); assay: Erythropoietin receptor activation through ERK1/2 phosphorylation (western blot) in HEK 293 cells expressing EPOR-GFP; assay type: cell-based; details: FIG. 12; for character of erythropoietin receptor activation: ERK1/2 phosphorylation
T2 construct: expressed in transfected cells
T2 sequence (P19235 25-508): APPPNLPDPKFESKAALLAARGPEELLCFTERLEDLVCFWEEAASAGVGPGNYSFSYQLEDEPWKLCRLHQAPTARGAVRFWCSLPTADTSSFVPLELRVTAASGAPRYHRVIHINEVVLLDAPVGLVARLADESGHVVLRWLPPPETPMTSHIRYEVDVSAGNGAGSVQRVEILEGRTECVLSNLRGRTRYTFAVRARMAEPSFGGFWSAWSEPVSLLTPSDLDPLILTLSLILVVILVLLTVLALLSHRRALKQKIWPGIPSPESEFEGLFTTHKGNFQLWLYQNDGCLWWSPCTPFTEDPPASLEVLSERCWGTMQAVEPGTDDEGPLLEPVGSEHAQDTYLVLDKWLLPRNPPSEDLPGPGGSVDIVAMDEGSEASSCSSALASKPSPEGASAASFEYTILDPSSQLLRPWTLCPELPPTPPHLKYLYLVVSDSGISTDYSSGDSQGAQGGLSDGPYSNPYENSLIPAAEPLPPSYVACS

PC12 cells [3] = assay: Cell proliferation, MTT assay; assay type: cell-based; details: 10 ng/ml peptide, 24 hours, FIG. 7
Method: To determine the side effect, such as cell proliferation, of the peptides prepared in Examples 1 to 3, cell viability was evaluated by an MTT assay.
In detail, PC12 cells were cultured in a DMEM (Dulbecco's Modified Eagle's Medium) medium (Hyclone, USA) and an RPM11640 medium (Hyclone, UT, USA), each supplemented with 10% fetal bovine serum (FBS, Hyclone, Utah, USA), 100 unit/ml penicillin, and 100 μg/ml streptomycin (Hyclone, UT, USA) in an incubator supplied with 5% CO2 and under a condition of 37° C. PC12 cell lines were seeded in a 96-well plate at a density of 5×10^4 cells/ml, and cultured under conditions of 37° C. and 5% CO2 for 24 hours. Thereafter, the cells were treated with each of the peptides of Examples 1 to 3, which were prepared at a concentration of 10 ng/ml, followed by incubation for 24 hours. Thereafter, 20 μl of 5 mg/ml 3-[4,5-dimethyl-thiazol]-2,5-diphenyl-tetrazolium bromide (MTT) reagent was added thereto, and allowed to react for 2 hours. After reaction, 200 μl of dimethyl sulfoxide (DMSO, Duksan, Gyeonggi-do, Korea) was added thereto to completely dissolve formed formazan, and absorbance at 570 nm was measured using a microplate reader (Molecular Devices, CA, USA).

mice = assay: In vivo hematopoietic activity, blood test; design: species or system mouse
Method: In vivo hematopoietic activities in a mouse were measured for the peptides prepared in Example 5, MLP, MLP-C, and MLP-H.
In detail, the prepared peptide or scrambled (Scr) peptide as a negative control group was administered by intraperitoneal injection to mice at a dose of 0 μg/kg, 1 μg/kg, or 100 μg/kg repeatedly, everyday over 14 days. Thereafter, a body weight test and a blood test were performed.

[4] = sampling at 0, 30, 60, 90 minutes
[5] = 100 μg/kg intraperitoneal daily over 14 days

CC[C@H](C)[C@H](NC(=O)[C@H](C)NC(=O)[C@H](CCC(=O)O)NC(=O)[C@H](CCCCN)NC(=O)[C@H](CCC(N)=O)NC(=O)[C@H](C)NC(=O)CNC(=O)[C@H](CC(C)C)NC(=O)[C@H](C)NC(=O)[C@H](CCCNC(=N)N)NC(=O)[C@H](CC(C)C)NC(=O)[C@H](CC(C)C)NC(=O)[C@@H](NC(=O)[C@@H](NC(=O)[C@H](CC(C)C)NC(=O)[C@H](CO)NC(=O)[C@H](CCCNC(=N)N)NC(=O)[C@H](CC(C)C)NC(=O)CNC(=O)[C@@H](N)CO)[C@@H](C)O)[C@@H](C)O)C(=O)O [ML6]
koff ([1]; SPR, Table 10): 0.045 s⁻¹

AGLRSRAHLRRALA [ML5-1]
kon ([1]; SPR, Table 10): 442 M⁻¹ s⁻¹
koff ([1]; SPR, Table 10): 0.0346 s⁻¹

DEALDLEVDKAATGLRTLTTLIRAL [ML7-1]
kon ([1]; SPR, Table 10): 226 M⁻¹ s⁻¹
koff ([1]; SPR, Table 10): 0.0144 s⁻¹

DKAVSGLRSLTTLLRAL [ML8]
kon ([1]; SPR, Table 10): 180 M⁻¹ s⁻¹
koff ([1]; SPR, Table 10): 0.08 s⁻¹

DKAVSGLRSLTTLLRALGAQKEAI [ML4]
kon ([1]; SPR, Table 10): 220 M⁻¹ s⁻¹
koff ([1]; SPR, Table 10): 0.0022 s⁻¹

KGLRSLISLLRALGAQKEAI [ML6-1]
kon ([1]; SPR, Table 10): 190 M⁻¹ s⁻¹
koff ([1]; SPR, Table 10): 0.03 s⁻¹

KKAVSGLKTLTHILRALGAQKEAI [ML4-1]
kon ([1]; SPR, Table 10): 410 M⁻¹ s⁻¹

LDLEVDKAVSGLRSLTTLLRALG [ML1-C1]
clustering of cell protective and proliferative effects relative to EPO (PC12 cells [2]): clustered as having similar effects as EPO
kon [1]: 1750 M⁻¹ s⁻¹
koff [1]: 0.262 s⁻¹

LHVDKAVSGLRSLTTLLRAL [ML2]
koff ([1]; SPR, Table 10): 0.0044 s⁻¹

LHVLKAVSGLLTLTMIRRA (MLP-H) [ML1-H2 with two amino acids removed from both ends, for in vivo use]
character of erythropoietin receptor activation (erythropoietin receptor): weak yet lasts for a prolonged period of time
erythropoietin receptor activation after 30 minutes (erythropoietin receptor; [4]): maintains activation even after 30 minutes

LQLHVDKAVSGLRSLTTLLRALG [ML1]
cell proliferative effects compared to EPO groups (PC12 cells [2]): a large difference
cell protective effects compared to EPO groups (PC12 cells [2]): no large difference
kon ([1]; SPR, Table 10): 1310 M⁻¹ s⁻¹
koff ([1]; SPR, Table 10): 0.0085 s⁻¹
kon ([1]; SPR, Table 11): 1310 M⁻¹ s⁻¹
koff ([1]; SPR, Table 11): 0.00847 s⁻¹

LQLHVLKAVAGLRTLAMIRRALA [ML1-H3]
cell proliferative effects compared to EPO groups (PC12 cells [2]): a large difference
cell protective effects compared to EPO groups (PC12 cells [2]): no large difference
kon ([1]; SPR, Table 11): 4160 M⁻¹ s⁻¹
koff ([1]; SPR, Table 11): 0.00477 s⁻¹

LQLHVLKAVSGLLTHTTLLKALG [ML1-H1]
cell proliferative effects compared to EPO groups (PC12 cells [2]): a large difference
cell protective effects compared to EPO groups (PC12 cells [2]): no large difference
kon ([1]; SPR, Table 11): 1010 M⁻¹ s⁻¹
koff ([1]; SPR, Table 11): 0.00794 s⁻¹

LQLHVLKAVSGLLTLTMIRRALG [ML1-H2]
cell proliferative effects compared to EPO groups (PC12 cells [2]): a large difference
cell protective effects compared to EPO groups (PC12 cells [2]): no large difference
kon ([1]; SPR, Table 11): 3430 M⁻¹ s⁻¹
koff ([1]; SPR, Table 11): 0.00105 s⁻¹

LQLHVLKRVSGLLSHTMLLKALG [ML1-1]
kon ([1]; SPR, Table 10): 5550 M⁻¹ s⁻¹
koff ([1]; SPR, Table 10): 0.0059 s⁻¹

LQRHVDKRVSGLRSLTTLLRALG [ML1-C2]
clustering of cell protective and proliferative effects relative to EPO (PC12 cells [2]): clustered as having similar effects as EPO
cell proliferation rate (PC12 cells [3]): cell proliferative effects to a degree similar to that of the natural erythropoietin
kon ([1]; SPR, Table 11): 1590 M⁻¹ s⁻¹
koff ([1]; SPR, Table 11): 0.0188 s⁻¹

LQRHVKKRVKGLKSLTTLLRALG [ML1-C3]
clustering of cell protective and proliferative effects relative to EPO (PC12 cells [2]): clustered as having similar effects as EPO
cell proliferation rate (PC12 cells [3]): cell proliferative effects to a degree similar to that of the natural erythropoietin
kon ([1]; SPR, Table 11): 1100 M⁻¹ s⁻¹
koff ([1]; SPR, Table 11): 0.0109 s⁻¹

NKAVAGLRSLTVN [ML8-1]
koff ([1]; SPR, Table 10): 0.15 s⁻¹

RHVKKRVKGLKSLTTLLRA (MLP-C) [ML1-C3 with two amino acids removed from both ends, for in vivo use]
hemoglobin content (mice; [5]): significant increases
mean corpuscular hemoglobin (mice; [5]): significant increases
mean corpuscular hemoglobin concentration (mice; [5]): significant increases
red blood cell count (mice; 100 μg/kg intraperitoneal daily over 14 days, FIG. 11B): significant increases
platelet concentration (mice; intraperitoneal daily over 14 days, FIG. 11D): no large change
hematocrit (mice; intraperitoneal, 1 or 100 μg/kg daily over 14 days, FIG. 11A): significantly increased according to an administration dose
character of erythropoietin receptor activation (erythropoietin receptor): brief but potent activation
erythropoietin receptor activation after 30 minutes (erythropoietin receptor; [4]): decline thereafter
time of maximum erythropoietin receptor activity (ERK1/2 phosphorylation) (erythropoietin receptor; [4]): 30 min

RHVQKAESGLRSLTKLLREL [ML2-1]
kon ([1]; SPR, Table 10): 310 M⁻¹ s⁻¹
koff ([1]; SPR, Table 10): 0.0041 s⁻¹

SGLRSLTTLLRALG [ML5]
kon ([1]; SPR, Table 10): 304 M⁻¹ s⁻¹
koff ([1]; SPR, Table 10): 0.0001 s⁻¹

TKVNFYAWKR [ML3]
kon ([1]; SPR, Table 10): 205 M⁻¹ s⁻¹
koff ([1]; SPR, Table 10): 0.003 s⁻¹

TRVNYQAWKR [ML3-1]
kon ([1]; SPR, Table 10): 3080 M⁻¹ s⁻¹
koff ([1]; SPR, Table 10): 0.013 s⁻¹
